Measured values from the supplement of paper PMC10307832.

Experiments:
Experiment in all cases: relative viability (nuclei count vs DMSO), 5 days (fraction); higher = more cells survive
GSK126 + Lapatinib = compound: CC[C@H](C)N1C=C(C2=C(C=C(C=C21)C3=CN=C(C=C3)N4CCNCC4)C(=O)NCC5=C(C=C(NC5=O)C)C)C [GSK126] + CS(=O)(=O)CCNCc1ccc(-c2ccc3ncnc(Nc4ccc(OCc5cccc(F)c5)c(Cl)c4)c3c2)o1 [Lapatinib] (partner 2 µM)
Outline: (§1)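 Values are medians from duplicate plates. Each reflects relative viability, defined as the nuclei count of treated wells over that of vehicle wells. Lung cancer cell lines in 1536-well plates were pin-tool dosed one day after seeding with one drug alone or with a fixed anchor-drug dose plus five library-drug doses (not always all listed) in √10 steps, then fixed, stained and imaged at 4× after 5 days.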

Carboplatin + Lapatinib = compound: C1CC(C1)(C(=O)O)C(=O)O.[NH2-].[NH2-].[Pt+2] [Carboplatin] + CS(=O)(=O)CCNCc1ccc(-c2ccc3ncnc(Nc4ccc(OCc5cccc(F)c5)c(Cl)c4)c3c2)o1 [Lapatinib] (partner 2 µM)
Outline: as §1

GSK126 + Dasatinib = compound: CC[C@H](C)N1C=C(C2=C(C=C(C=C21)C3=CN=C(C=C3)N4CCNCC4)C(=O)NCC5=C(C=C(NC5=O)C)C)C [GSK126] + Cc1nc(Nc2ncc(C(=O)Nc3c(C)cccc3Cl)s2)cc(N2CCN(CCO)CC2)n1 [Dasatinib] (partner 0.075 µM)
Outline: as §1

GSK126 + Trametinib = compound: CC[C@H](C)N1C=C(C2=C(C=C(C=C21)C3=CN=C(C=C3)N4CCNCC4)C(=O)NCC5=C(C=C(NC5=O)C)C)C [GSK126] + CC(=O)Nc1cccc(-n2c(=O)n(C3CC3)c(=O)c3c(Nc4ccc(I)cc4F)n(C)c(=O)c(C)c32)c1 [Trametinib] (partner 0.02 µM)
Outline: as §1

Cell Line | relative viability (GSK126 + Lapatinib; first compound 0.08 µM) | relative viability (GSK126 + Lapatinib; first compound 0.253 µM) | relative viability (GSK126 + Lapatinib; first compound 0.8 µM) | relative viability (GSK126 + Lapatinib; first compound 2.53 µM) | relative viability (GSK126 + Lapatinib; first compound 8 µM) | relative viability (Carboplatin + Lapatinib; first compound 0.08 µM) | relative viability (Carboplatin + Lapatinib; first compound 0.253 µM) | relative viability (Carboplatin + Lapatinib; first compound 0.8 µM) | relative viability (Carboplatin + Lapatinib; first compound 2.53 µM) | relative viability (Carboplatin + Lapatinib; first compound 8 µM) | relative viability (GSK126 + Dasatinib; first compound 0.08 µM) | relative viability (GSK126 + Dasatinib; first compound 0.253 µM) | relative viability (GSK126 + Dasatinib; first compound 0.8 µM) | relative viability (GSK126 + Dasatinib; first compound 2.53 µM) | relative viability (GSK126 + Dasatinib; first compound 8 µM) | relative viability (GSK126 + Trametinib; first compound 0.08 µM) | relative viability (GSK126 + Trametinib; first compound 0.253 µM) | relative viability (GSK126 + Trametinib; first compound 0.8 µM) | relative viability (GSK126 + Trametinib; first compound 2.53 µM) | relative viability (GSK126 + Trametinib; first compound 8 µM)
NCI-H1915 | 1.08 | 0.97 | 1.03 | 0.978 | 0.993 | 0.906 | 1.03 | 0.976 | 0.999 | 0.577 | 0.3 | 0.3 | 0.34 | 0.347 | 0.328 | 0.344 | 0.29 | 0.313 | 0.315 | 0.332
NCI-H1650 | 0.828 | 0.798 | 0.739 | 0.854 | 0.755 | 0.944 | 0.878 | 0.825 | 0.795 | 0.661 | 0.349 | 0.333 | 0.284 | 0.281 | 0.338 | 0.631 | 0.656 | 0.428 | 0.578 | 0.654
NCI-H522 | – | – | – | – | – | – | – | – | – | – | 0.871 | 0.699 | 0.794 | 1.02 | 0.775 | 0.773 | 0.716 | 0.647 | 0.654 | 0.829
Calu-6 | 1.1 | 1.14 | 1.07 | 1.11 | 1.03 | 1.12 | 1.06 | 1.03 | 0.87 | 0.456 | – | – | – | – | – | – | – | – | – | –
IA-LM | 1 | 0.717 | 0.708 | 0.762 | 0.892 | 0.809 | 0.802 | 0.739 | 0.929 | 0.77 | – | – | – | – | – | – | – | – | – | –
EBC-1 | 0.232 | 0.188 | 0.178 | 0.21 | 0.202 | 0.201 | 0.234 | 0.201 | 0.208 | 0.204 | – | – | – | – | – | – | – | – | – | –
SW 900 | – | – | – | – | – | – | – | – | – | – | 0.695 | 0.494 | 0.622 | 0.508 | 0.548 | 0.801 | 0.507 | 0.86 | 0.901 | 0.615
LCLC-103H | – | – | – | – | – | – | – | – | – | – | 0.485 | 0.45 | 0.464 | 0.447 | 0.51 | 0.71 | 0.708 | 0.647 | 0.64 | 0.725
NCI-H1703 | 1.08 | 1.14 | 0.917 | 1.23 | 1.09 | 1.13 | 0.966 | 1.13 | 0.92 | 1.28 | – | – | – | – | – | – | – | – | – | –
NCI-H1563 | 1.1 | 1.04 | 0.957 | 0.999 | 0.869 | 0.998 | 1.07 | 1.11 | 0.925 | 0.979 | 0.438 | 0.455 | 0.461 | 0.459 | 0.441 | – | – | – | – | –
ABC-1 | 1.26 | 1.29 | 1.07 | 1.18 | 0.872 | 1.12 | 1.55 | 0.848 | 0.902 | 1.17 | 0.591 | 0.544 | 0.678 | 0.535 | 0.45 | – | – | – | – | –
NCI-H1623 | – | – | – | – | – | – | – | – | – | – | 0.529 | 0.567 | 0.602 | 0.482 | 0.5 | – | – | – | – | –
NCI-H441 | – | – | – | – | – | – | – | – | – | – | 0.618 | 0.688 | 0.458 | 0.796 | 0.407 | 0.538 | 0.471 | 0.571 | 0.483 | 0.343
